Laboratory results as given in publication PMC7982521, “Studies on the Changes of Pharmacokinetics Behaviors of Phytochemicals and the Influence on Endogenous Metabolites After the Combination of Radix Bupleuri and Radix Paeoniae Alba Based on Multi-Component Pharmacokinetics and Metabolomics” (Frontiers in Pharmacology, 2021).
Where two headings read alike, the source gives them in different places.

Assay: Multi-component pharmacokinetics in rat plasma after oral administration of RB, RPA or RB-RPA extracts (UPLC-HRMS, non-compartmental analysis)
Format: in vivo, Sprague-Dawley rats
Conditions: for AUC0-t / AUC0-∞ / Cmax / t1/2 / tmax / AUC(0-inf) / half-life: rat plasma, mean ± SD, n = 7; for change of t1/2 after combination: oral RB-RPA group vs single herbal group
Experimental: (Beijing, China, No. SCXK2018-0011). […] All rats were free to access the water and food until 12 h before the experiment. The animal study was reviewed and approved by the Experimental Animal Ethical Committee of Modern Research Center for Traditional Chinese Medicine, Shanxi University (animal ethic approval number: SXULL2018018), and all experimental procedures were carried out in accordance with the NIH Guide for the Care and Use of Laboratory Animals. After one week of adaptation, twenty-one rats were divided into three groups randomly, with seven rats in each group: 1) RPA group, were oral administration of Radix Paeoniae Alba extract (45 g-herb/kg); 2) RB group, were oral administration of Radix Bupleuri extract (45 g-herb/kg); 3) RB-RPA group, were oral administration of powder mixture of Radix Bupleuri and Radix Paeoniae Alba extracts (containing 45 g-herb/kg Radix Bupleuri and 45 g-herb/kg Radix Paeoniae Alba). […] Each group received intragastric administration with a volume of 10 ml/kg (rat body weight). […] All rats were free to access the water during the experiment. The blood samples at each time point were collected from seven rats. The blood samples were centrifuged at 4,000 rpm for 10 min and frozen at -80°C until analysis. Using a Thermo-Fisher Dionex UltiMate 3000 UHPLC system coupled with a Q Exactive Orbitrap-MS (Thermo-Fisher, United States) and Xcalibur workstation (Thermo-Fisher Scientific Inc.,Waltham, MA, United States) to acquire UPLC-HRMS raw data. Chromatographic separation of herb extracts and plasma samples was performed on an Acquity UPLC HSS T3 column (2.1 mm × 100 mm, 1.8 μm) maintained at 37°C. The flow rate was 0.2 ml/min and the injection volume was 5 μL. […] Mass spectrometry detection conditions were set as follows: the MS data were acquired under positive and negative ionization modes via heated electrospray ionization (HESI) source. […] The Q Exactive Orbitrap-MS has a fast positive and negative ion switching function, which could switch between positive-negative ion modes during the analysis of the same sample. So, we applied the method of switching ion modes in the detection process to quantify all analytes better. […] UPLC/MS/MS calibration and quantitation data were processed with Xcalibur workstation (Thermo-Fisher Scientific Inc., Waltham, MA, United States). For the eight components with standard reference, calculating their concentrations from the standard curves. For the other 30 components without standard reference, their concentrations were analyzed following the regression equations of homologous compounds ([Qiao et al., 2012]): paeoniflorin for P1 and M1 to M3; methylgallate for M4 to M10; saikosaponin […] and […]; saikosaponin […]; saikosaponin […]; saikosaponin B2 for P11 and M25 to […].

[1] = oral RB single extract 45 g-herb/kg
[2] = oral RB-RPA mixed extracts (45 g-herb/kg RB + 45 g-herb/kg RPA)
[3] = male, Sprague-Dawley, rat, plasma, po, 45 g/kg, oral RB single extract 45 g-herb/kg
[4] = oral administration of mixed extracts RB-RPA
[5] = oral administration of single extract RPA

## CC1(C)CC[C@@]2(CO)C(=C3C=C[C@@H]4[C@@]5(C)CC[C@H](O)[C@@](C)(CO)[C@@H]5CC[C@@]4(C)[C@]3(C)C[C@H]2O)C1 [Saikogenin D]
[1]
  AUC0-t: 81.39 ± 36.37 ng·h/mL
  AUC0-∞: 85.33 ± 40.21 ng·h/mL
  Cmax: 16.51 ± 8.25 ng/mL
  t1/2: 5.10 ± 1.21 h
  tmax: 1.17 ± 0.26 h
[2]
  AUC0-t: 131.78 ± 59.75 ng·h/mL
  AUC0-∞: 141.32 ± 65.28 ng·h/mL
  Cmax: 19.75 ± 10.49 ng/mL
  t1/2: 5.78 ± 2.37 h
  tmax: 0.92 ± 0.20 h

## CC1(C)CC[C@]23CO[C@@]4(C=C[C@@H]5[C@@]6(C)CC[C@H](O)C(C)(C)[C@@H]6CC[C@@]5(C)[C@]4(C)C[C@@H]2O)[C@@H]3C1 [Saikogenin E]
[1]
  AUC0-t: 34.53 ± 9.88 ng·h/mL
  AUC0-∞: 38.46 ± 9.92 ng·h/mL
  Cmax: 12.31 ± 5.03 ng/mL
  t1/2: 3.40 ± 1.47 h
  tmax: 0.75 ± 0.16 h
[2]
  AUC0-t: 40.24 ± 15.68 ng·h/mL
  AUC0-∞: 45.24 ± 14.83 ng·h/mL
  Cmax: 13.41 ± 6.28 ng/mL
  t1/2: 3.99 ± 2.19 h
  tmax: 0.79 ± 0.10 h

## CC1(C)CC[C@]23CO[C@@]4(C=C[C@@H]5[C@@]6(C)CC[C@H](O)[C@@](C)(CO)[C@@H]6CC[C@@]5(C)[C@]4(C)C[C@@H]2O)[C@@H]3C1 [Saikogenin F]
[1]
  AUC0-t: 156.14 ± 83.93 ng·h/mL
  AUC0-∞: 159.01 ± 82.32 ng·h/mL
  Cmax: 30.25 ± 13.93 ng/mL
  t1/2: 4.01 ± 1.88 h
  tmax: 1.04 ± 0.25 h
[2]
  AUC0-t: 301.08 ± 199.77 ng·h/mL
  AUC0-∞: 347.02 ± 174.43 ng·h/mL
  Cmax: 34.09 ± 17.25 ng/mL
  t1/2: 6.80 ± 2.11 h
  tmax: 1.17 ± 0.26 h

## CC1(C)CC[C@]23CO[C@@]4(C=C[C@@H]5[C@@]6(C)CC[C@H](O)[C@@](C)(CO)[C@@H]6CC[C@@]5(C)[C@]4(C)C[C@H]2O)[C@@H]3C1 [Saikogenin G]
[1]
  AUC0-t: 50.01 ± 16.60 ng·h/mL
  AUC0-∞: 57.20 ± 17.81 ng·h/mL
  Cmax: 11.26 ± 4.74 ng/mL
  t1/2: 3.96 ± 1.59 h
  tmax: 0.75 ± 0.00 h
[2]
  AUC0-t: 88.79 ± 41.87 ng·h/mL
  AUC0-∞: 99.59 ± 41.70 ng·h/mL
  Cmax: 12.67 ± 4.42 ng/mL
  t1/2: 6.53 ± 2.21 h
  tmax: 0.71 ± 0.10 h

## C[C@H]1O[C@@H](O[C@H]2CC[C@@]3(C)[C@@H](CC[C@]4(C)[C@@H]3C=C[C@]35OC[C@@]6(CCC(C)(C)C[C@H]63)[C@@H](O)C[C@]54C)[C@]2(C)CO)[C@H](O)[C@@H](O[C@@H]2O[C@H](CO)[C@@H](O)[C@H](O)[C@H]2O)[C@H]1O [Saikosaponin A]
[3]
  AUC(0-inf): 104 ± 38.6 ng·h/mL
  half-life: 2.13 ± 0.43 h
male, Sprague-Dawley, rat, plasma, po, 45 g/kg, oral RB single extract 45 g-herb/kg, read-out: AUC0-t
  AUC0-t: 102 ± 38.5 ng·h/mL
male, Sprague-Dawley, rat, plasma, po, 45 g/kg, oral RB single extract 45 g-herb/kg, read-out: Cmax
  Cmax: 68.4 ± 16.9 ng/mL
male, Sprague-Dawley, rat, plasma, po, 45 g/kg, oral RB single extract 45 g-herb/kg, read-out: tmax
  tmax: 0.54 ± 0.1 h
male, Sprague-Dawley, rat, plasma, po, 45 g/kg, oral RB-RPA mixed extracts (45 g-herb/kg RB + 45 g-herb/kg RPA)
  AUC(0-inf): 176 ± 45.9 ng·h/mL
male, Sprague-Dawley, rat, plasma, po, 45 g/kg, oral RB-RPA mixed extracts (45 g-herb/kg RB + 45 g-herb/kg RPA), read-out: Cmax
  Cmax: 46.5 ± 12.4 ng/mL
male, Sprague-Dawley, rat, plasma, po, oral RB-RPA mixed extracts (45 g-herb/kg RB + 45 g-herb/kg RPA)
  half-life: 3.55 ± 0.57 h
male, Sprague-Dawley, rat, plasma, po, oral RB-RPA mixed extracts (45 g-herb/kg RB + 45 g-herb/kg RPA), read-out: AUC0-t
  AUC0-t: 170 ± 48.2 ng·h/mL
male, Sprague-Dawley, rat, plasma, po, oral RB-RPA mixed extracts (45 g-herb/kg RB + 45 g-herb/kg RPA), read-out: tmax
  tmax: 0.63 ± 0.21 h
rat
  change of t1/2 after combination: longer

## C[C@H]1O[C@@H](O[C@H]2CC[C@@]3(C)[C@@H](CC[C@]4(C)[C@@H]3C=CC3=C5CC(C)(C)CC[C@]5(CO)[C@H](O)C[C@]34C)[C@]2(C)CO)[C@H](O)[C@@H](O[C@@H]2O[C@H](CO)[C@@H](O)[C@H](O)[C@H]2O)[C@H]1O [Saikosaponin B2]
[1]
  AUC0-t: 65.14 ± 19.35 ng·h/mL
  AUC0-∞: 67.92 ± 19.39 ng·h/mL
  Cmax: 22.33 ± 2.99 ng/mL
  t1/2: 2.70 ± 1.52 h
  tmax: 0.67 ± 0.13 h
[2]
  AUC0-t: 98.63 ± 18.36 ng·h/mL
  AUC0-∞: 104.39 ± 23.28 ng·h/mL
  Cmax: 28.19 ± 5.50 ng/mL
  t1/2: 2.89 ± 1.14 h
  tmax: 0.83 ± 0.20 h

## C[C@@H]1O[C@@H](O[C@@H]2[C@H](O)[C@@H](O)[C@H](O[C@H]3CC[C@@]4(C)C(CC[C@]5(C)C4C=C[C@]46OC[C@@]7(CCC(C)(C)CC74)[C@@H](O)C[C@]65C)C3(C)C)O[C@@H]2CO[C@@H]2O[C@H](CO)[C@@H](O)[C@H](O)[C@H]2O)[C@H](O)[C@H](O)[C@H]1O (stereo partly shown) [Saikosaponin C]
[1]
  AUC0-t: 38.82 ± 9.84 ng·h/mL
  AUC0-∞: 42.15 ± 8.73 ng·h/mL
  Cmax: 31.12 ± 11.08 ng/mL
  t1/2: 2.07 ± 1.12 h
  tmax: 0.50 ± 0.16 h
[2]
  AUC0-t: 51.33 ± 16.19 ng·h/mL
  AUC0-∞: 53.67 ± 16.16 ng·h/mL
  Cmax: 20.63 ± 5.65 ng/mL
  t1/2: 2.53 ± 1.54 h
  tmax: 0.66 ± 0.30 h

## C[C@H]1O[C@@H](O[C@H]2CC[C@@]3(C)[C@@H](CC[C@]4(C)[C@@H]3C=C[C@]35OC[C@@]6(CCC(C)(C)C[C@H]63)[C@H](O)C[C@]54C)[C@]2(C)CO)[C@H](O)[C@@H](O[C@@H]2O[C@H](CO)[C@@H](O)[C@H](O)[C@H]2O)[C@H]1O [Saikosaponin D]
[1]
  AUC0-t: 67.73 ± 18.62 ng·h/mL
  AUC0-∞: 69.92 ± 17.38 ng·h/mL
  Cmax: 42.84 ± 11.53 ng/mL
  t1/2: 2.01 ± 0.34 h
  tmax: 0.50 ± 0.16 h
[2]
  AUC0-t: 99.98 ± 31.48 ng·h/mL
  AUC0-∞: 103.56 ± 33.67 ng·h/mL
  t1/2: 2.98 ± 0.89 h
  tmax: 0.87 ± 0.38 h
rat
  change of t1/2 after combination: longer

## Acetyl-saikosaponin B2
[1]
  AUC0-t: 16.86 ± 4.34 ng·h/mL
  AUC0-∞: 19.75 ± 3.88 ng·h/mL
  Cmax: 14.82 ± 4.41 ng/mL
  t1/2: 3.81 ± 1.29 h
  tmax: 0.42 ± 0.13 h
[2]
  AUC0-t: 23.18 ± 12.77 ng·h/mL
  AUC0-∞: 26.03 ± 13.58 ng·h/mL
  Cmax: 12.94 ± 6.29 ng/mL
  t1/2: 3.18 ± 1.01 h
  tmax: 0.42 ± 0.13 h

## Paeonimetabolin II
[4]
  AUC0-t: 9490.91 ± 4705.90 ng·h/mL
  AUC0-∞: 13198.67 ± 4477.34 ng·h/mL
  Cmax: 984.50 ± 452.44 ng/mL
  t1/2: 9.30 ± 2.76 h
  tmax: 1.17 ± 0.90 h
[5]
  AUC0-t: 6694.27 ± 2468.69 ng·h/mL
  AUC0-∞: 8022.12 ± 2764.81 ng·h/mL
  Cmax: 850.12 ± 292.63 ng/mL
  t1/2: 9.22 ± 2.04 h
  tmax: 1.04 ± 0.37 h
rat, oral RB-RPA group vs single herbal group (RB or RPA)
  change of AUC0-∞ after combination: significantly increased

## Pyrogallol glucuronide
[4]
  AUC0-t: 643.56 ± 348.44 ng·h/mL
  AUC0-∞: 825.47 ± 393.90 ng·h/mL
  Cmax: 47.97 ± 13.98 ng/mL
  t1/2: 10.49 ± 2.78 h
  tmax: 2.92 ± 1.43 h
[5]
  AUC0-t: 262.73 ± 101.68 ng·h/mL
  AUC0-∞: 336.41 ± 159.76 ng·h/mL
  Cmax: 34.21 ± 4.94 ng/mL
  t1/2: 6.16 ± 2.02 h
  tmax: 2.67 ± 1.85 h
rat, oral RB-RPA vs RPA alone
  AUC0-∞ after combination relative to RPA alone: 245.38%
  Cmax after combination relative to RPA alone: 140.22%
  t1/2 after combination relative to RPA alone: 170.29%
